Reference: patent US20070219183A1, “Dihydropyrazolo[1,5-A]pyrimidine and dihydroimidazo[1,5-A]pyrimidine derivatives and methods of use thereof” (Wyeth, priority 2006, published 2007)
pIC50: −log10 of the molar value.

Each compound was assayed against T1, Flag/GST-tagged recombinant human B-Raf (Homo sapiens, UniProt P15056) (assay: B-Raf Kinase to MEK1 ELISA). Details: phosphorylation of GST-MEK1 (50 nM final), phospho-MEK1 antibody/Europium readout; 60 minutes at RT.
T1 construct: Flag; GST; made in house; host or cells: Sf9 insect cells (B-Raf); E. coli (Mek-1-GST)
T1 sequence (P15056 whole entry): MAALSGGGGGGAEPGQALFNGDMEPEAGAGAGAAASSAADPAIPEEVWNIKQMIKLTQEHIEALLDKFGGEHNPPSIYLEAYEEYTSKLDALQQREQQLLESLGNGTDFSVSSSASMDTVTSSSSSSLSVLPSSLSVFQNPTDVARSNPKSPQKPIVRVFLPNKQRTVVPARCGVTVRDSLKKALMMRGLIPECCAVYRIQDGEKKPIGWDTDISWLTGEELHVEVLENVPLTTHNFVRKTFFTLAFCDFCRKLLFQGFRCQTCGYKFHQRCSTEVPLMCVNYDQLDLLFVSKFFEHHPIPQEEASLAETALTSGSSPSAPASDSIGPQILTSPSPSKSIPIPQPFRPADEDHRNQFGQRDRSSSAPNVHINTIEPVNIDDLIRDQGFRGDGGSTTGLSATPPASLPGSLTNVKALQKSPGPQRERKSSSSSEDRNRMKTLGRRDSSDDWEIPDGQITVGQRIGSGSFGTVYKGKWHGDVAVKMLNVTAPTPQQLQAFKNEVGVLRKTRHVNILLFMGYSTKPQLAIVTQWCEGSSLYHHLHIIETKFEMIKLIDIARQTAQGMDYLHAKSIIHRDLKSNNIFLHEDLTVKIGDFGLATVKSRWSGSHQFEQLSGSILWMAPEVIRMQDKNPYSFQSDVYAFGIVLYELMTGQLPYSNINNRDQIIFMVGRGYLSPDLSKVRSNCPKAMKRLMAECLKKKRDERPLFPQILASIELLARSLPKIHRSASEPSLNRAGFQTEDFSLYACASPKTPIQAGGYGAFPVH
Format: biochemical
Excerpt: • TITLE: B-Raf Kinase to MEK1 ELISA • PURPOSE: To discover B-Raf Kinase inhibitors that can inhibit growth of tumor cells which contain oncogenic forms of Receptor Tyrosine Kinases or K-Ras, or B-Raf kinase.
Reagents: Flag/GST-tagged recombinant human B-Raf produced in Sf9 insect cells, human non-active Mek-1-GST (recombinant protein produced in E. coli); and a phospho-MEK1 specific poly-clonal Ab from Cell Signaling Technology (cat. #9121).
B-Raf-1 is used to phosphorylate GST-MEK1. MEK1 phosphorylation is measured by a phospho-specific antibody (from Cell Signaling Technology, cat. #9121) that detects phosphorylation of two serine residues at positions 217 and 221 on MEK1.
1. Assay Dilution Buffer (ADB): 20 mM MOPS, pH 7.2, 25 mM β-glycerol phosphate, 5 mM EGTA, 1 mM sodium orthovanadate, 1 mM dithiothreitol.
2. Magnesium/ATP Cocktail: 200 μM cold ATP and 40 mM magnesium chloride in ADB.
4. Active Kinase: Active B-Raf: used at ˜20 ng per assay point.
5. Non-active GST-MEK1: Use at 100 nM (50 nM final).
7. Anti-GST Ab (Pharmacia)
8. Anti-rabbit Ab/Europium conjugate (Wallac)
1. Add 25 μl of ADB containing B-Raf and Mek per assay (i.e. per well of a 96 well plate)
2. Add 25 μl of 0.2 mM ATP and 40 mM magnesium chloride in ADB.
3. Incubate for 60 minutes at RT in a shaking incubator.
4. Transfer this mixture to an anti-GST Ab coated 96 well plate (Nunc Immunosorb plates coated o/n with a-GST.
5. Incubate for 60 minutes at 30° C. in a shaking incubator
6. Wash 3× with TBST, add Anti-Phospho MEK1 (1:1000)
7. Incubate for 60 minutes at 30° C. in a shaking incubator
8. Wash 3× with TBST, add Anti-rabbit Ab/Europium conjugate (Wallac) (1:500)
9. Incubate for 60 minutes at 30° C. in a shaking incubator
10. Add 100 ul of Wallac Delfia Enhancement Solution and shake for 10 minutes.
11. Read plates in Wallac Victor model Plate Reader.
12. Collect data analyze in Excel for single point and IC50 determinations.
• Single point assay—% inhibition at […] (% Inhibition=1−cpd.treated sample/untreated control) • IC50 determinations—done on cpds from single pt assays with >80% inhibition. Typically Raf-1 assay is run at cpd concentrations from 10 μM to 30 nM in half log dilutions. (% inhibition is determined for each cpd concentration) • Data handling—Data is analyzed in Excel, and will transferred to Radis.
Compound `NCC(=O)N1CC=C(c2cccc(NC(=O)c3cccc(C(F)(F)F)c3)c2)n2nccc21` [Example 15, N-[3-(4-Glycyl-4,5-dihydropyrazolo[1,5-a]pyrimidin-7-yl)phenyl]-3-(trifluoromethyl)benzamide] has a pIC50 of less than 5.00. In the case of `CC(C)NC(=O)N1CC=C(c2cccc(NC(=O)c3cccc(C(F)(F)F)c3)c2)n2nccc21` [Example 5, N-isopropyl-7-(3-{[3-(trifluoromethyl)benzoyl]amino}phenyl)pyrazolo[1,5-a]pyrimidine-4(5H)-carboxamide], the pIC50 was 5.79. Compound `CCOC(=O)c1cnn2c1N(C(=O)OC)CC=C2c1cccc(NC(=O)c2cccc(C(F)(F)F)c2)c1` [Example 13, 3-Ethyl 4-methyl 7-(3-{[3-(trifluoromethyl)benzoyl]amino}phenyl)pyrazolo[1,5-a]pyrimidine-3,4(5H)-dicarboxylate] has a pIC50 of 6.90. Compound `CC(=O)NCCC(=O)N1CC=C(c2cccc(NC(=O)c3cccc(C(F)(F)F)c3)c2)n2nccc21` [Example 19, N-{3-[4-(N-Acetyl-β-alanyl)-4,5-dihydropyrazolo[1,5-a]pyrimidin-7-yl]phenyl}-3-(trifluoromethyl)benzamide] has a pIC50 of 6.15. Work on `CC(=O)N1CC=C(c2cccc(NC(=O)c3cccc(C(F)(F)F)c3)c2)n2nccc21` [Example 10, N-[3-(4-Acetyl-4,5-dihydropyrazolo[1,5-a]pyrimidin-7-yl)phenyl]-3-(trifluoromethyl)benzamide] yielded a pIC50 of 5.42. With `CS(=O)(=O)N1CC=C(c2cccc(NC(=O)c3cccc(C(F)(F)F)c3)c2)n2nccc21` [Example 2, N-{3-[4-(Methylsulfonyl)-4,5-dihydropyrazolo[1,5-a]pyrimidin-7-yl]phenyl}-3-(trifluoromethyl)benzamide] the pIC50 was 6.17. Work on `NCCC(=O)N1CC=C(c2cccc(NC(=O)c3cccc(C(F)(F)F)c3)c2)n2nccc21` [Example 18, N-[3-(4-β-Alanyl-4,5-dihydropyrazolo[1,5-a]pyrimidin-7-yl)phenyl]-3-(trifluoromethyl)benzamide] yielded a pIC50 of less than 5.00. With `CC(C)(C)OC(=O)NCC(=O)N1CC=C(c2cccc(NC(=O)c3cccc(C(F)(F)F)c3)c2)n2nccc21` [Example 14, tert-Butyl {2-oxo-2-[7-(3-{[3-(trifluoromethyl)benzoyl]amino}phenyl)pyrazolo[1,5-a]pyrimidin-4(5H)-yl]ethyl}carbamate] the pIC50 was less than 5.00. `CC(=O)NCC(=O)N1CC=C(c2cccc(NC(=O)c3cccc(C(F)(F)F)c3)c2)n2nccc21` [Example 16, N-{3-[4-(N-Acetylglycyl)-4,5-dihydropyrazolo[1,5-a]pyrimidin-7-yl]phenyl}-3-(trifluoromethyl)benzamide] gave a pIC50 of 5.75. `CC#CCN1CC=C(c2cccc(NC(=O)c3cccc(C(F)(F)F)c3)c2)n2nccc21` [Example 7, N-[3-(4-But-2-yn-1-yl-4,5-dihydropyrazolo[1,5-a]pyrimidin-7-yl)phenyl]-3-(trifluoromethyl)benzamide] gave a pIC50 of 6.06. `COC(=O)N1CC=C(c2cccc(NC(=O)c3cccc(C(F)(F)F)c3)c2)n2nccc21` [Example 3, Methyl 7-(3-{[3-(trifluoromethyl)benzoyl]amino}phenyl)pyrazolo[1,5-a]pyrimidine-4(5H)-carboxylate] was tested, and the pIC50 was 6.79. `CCOC(=O)c1cnn2c1NCC=C2c1cccc(NC(=O)c2cccc(C(F)(F)F)c2)c1` [Example 8, Ethyl 7-(3-{[3-(trifluoromethyl)benzoyl]amino}phenyl)-4,5-dihydropyrazolo[1,5-a]pyrimidine-3-carboxylate] showed a pIC50 of 6.56. With `O=C(Nc1cccc(C2=CCNc3ccnn32)c1)c1cccc(C(F)(F)F)c1` [Example 1, N-[3-(4,5-dihydropyrazolo[1,5-a]pyrimidin-7-yl)phenyl]-3-(trifluoromethyl)benzamide] the pIC50 was less than 5.00. Work on `O=C(Nc1ccc(Cl)c(C2=CCNc3ccnn32)c1)c1cccc(C(F)(F)F)c1` [Example 20, N-[4-Chloro-3-(4,5-dihydropyrazolo[1,5-a]pyrimidin-7-yl)phenyl]-3-(trifluoromethyl)benzamide] yielded a pIC50 of 6.79. In the case of `CC(C)(C)OC(=O)NCCC(=O)N1CC=C(c2cccc(NC(=O)c3cccc(C(F)(F)F)c3)c2)n2nccc21` [Example 17, tert-Butyl {3-oxo-3-[7-(3-{[3-(trifluoromethyl)benzoyl]amino}phenyl)pyrazolo[1,5-a]pyrimidin-4(5H)-yl]propyl}carbamate], the pIC50 was 6.41. With `CCNC(=O)N1CC=C(c2cccc(NC(=O)c3cccc(C(F)(F)F)c3)c2)n2nccc21` [Example 9, N-Ethyl-7-(3-{[3-(trifluoromethyl)benzoyl]amino}phenyl)pyrazolo[1,5-a]pyrimidine-4(5H)-carboxamide] the pIC50 was less than 5.00. With `CCOC(=O)N1CC=C(c2cccc(NC(=O)c3cccc(C(F)(F)F)c3)c2)n2nccc21` [Example 4, Ethyl 7-(3-{[3-(trifluoromethyl)benzoyl]amino}phenyl)pyrazolo[1,5-a]pyrimidine-4(5H)-carboxylate] the pIC50 was 6.43. Compound `CC(C)(C)OC(=O)N1CC=C(c2cccc(NC(=O)c3cccc(C(F)(F)F)c3)c2)n2nccc21` [Example 6, tert-Butyl 7-(3-{[3-(trifluoromethyl)benzoyl]amino}phenyl)pyrazolo[1,5-a]pyrimidine-4(5H)-carboxylate] has a pIC50 of 6.09. With `CC(C)(C)OC(=O)N1CC=C(c2cccc(N(C(=O)OC(C)(C)C)C(=O)c3cccc(C(F)(F)F)c3)c2)n2nccc21` [Example 12, tert-Butyl 7-(3-{(tert-butoxycarbonyl)[3-(trifluoromethyl)benzoyl]amino}phenyl)pyrazolo[1,5-a]pyrimidine-4(5H)-carboxylate 4(5H)-carboxylate] the pIC50 was less than 5.00. `CCOC(=O)c1cnn2c1N(C(C)=O)CC=C2c1cccc(NC(=O)c2cccc(C(F)(F)F)c2)c1` [Example 11, Ethyl 4-acetyl-7-(3-{[3-(trifluoromethyl)benzoyl]amino}phenyl)-4,5-dihydropyrazolo[1,5-a]pyrimidine-3-carboxylate] gave a pIC50 of 6.24.
